Literature values, collected in patent US20220380769A1 (priority 2020, published 2022).

Tested on: avian H5N1 influenza virus clades
Conditions: in vivo; cited from earlier work

rIn.r(C12U)n [Rintatolimod]
protection from lethal challenge doses of three avian H5N1 influenza virus clades: able to protect
